Assay results reported in US9676714B2, “Sulfonylindole derivatives and method for preparing the same” (Daewoong Pharmaceutical Co., Ltd., priority 2013, dated 2017).
Counter-ions that a name gives are not always drawn.

Biological target: T1, proton pump (H+/K+-ATPase) (Sus scrofa, UniProt P19156)
T1 construct: Gastric vesicles were prepared from hog stomach via centrifugal separation; from tissue; host or cells: hog stomach (gastric vesicles, method of Rabon et al. 1988)
Assay: Measurement of inhibitory effects on proton pump (H+/K+-ATPase) activities
Type: biochemical
Details: hog gastric vesicles, K+-specific H+/K+-ATPase activity, Tris-HCl buffer pH 7.4, 37° C. for 40 minutes, malachite green Pi readout
Method: 1) Preparation of Gastric Vesicles
Gastric vesicles were prepared from hog stomach via centrifugal separation (Edd C. Rabon et al., Preparation of Gastric H^+,K^+-ATPase, Methods in enzymology, vol. 157 Academic Press Inc., (1988), pp. 649-654). The protein contents of the thus prepared gastric vesicles were quantitated by Bicinchoninic Acid (BCA) kit.
2) Measurement of Inhibitory Effects on Proton Pump (H^+/K^+-ATPase) Activities
The inhibitory effects of the compounds of the present invention against proton pump activities were measured using a 96-well plate. In this assay, the K^+-specific H^+/K^+-ATPase activities were calculated based on the difference between the H^+/K^+-ATPase activity in the presence of K^+ and that in the absence of K. In the 96-well plate, 0.5% dimethyl sulfoxide (DMSO) in buffer was added to the negative and positive control groups, and the diluted compounds of the present invention were added to the test groups. All assays were performed in a reaction volume of 100 μl at room temperature. The reaction buffer solution (60 mmol/l Tris-HCl buffer, pH 7.4) including the hog gastric vesicles was added with DMSO and the compounds at various concentrations, and then further added with 10 μl of 10 mmol/1 adenosine triphosphate Tris buffer solution (60 mmol/l Tris-HCl buffer, pH 7.4) to initiate an enzyme reaction. […] The amount of monophosphate (Pi) in the reaction was measured at 570 nm using a micro plate reader (FLUOstar Omega, BMG LABTECH). The inhibition rates (%) were determined from the activity values of control groups and those of test compounds at various concentrations, and the […] of the test compounds were calculated based on the respective inhibition value (%) using the Logistic 4-parameter function of Sigmaplot 8.0 program.

T1 sequence (P19156 whole entry): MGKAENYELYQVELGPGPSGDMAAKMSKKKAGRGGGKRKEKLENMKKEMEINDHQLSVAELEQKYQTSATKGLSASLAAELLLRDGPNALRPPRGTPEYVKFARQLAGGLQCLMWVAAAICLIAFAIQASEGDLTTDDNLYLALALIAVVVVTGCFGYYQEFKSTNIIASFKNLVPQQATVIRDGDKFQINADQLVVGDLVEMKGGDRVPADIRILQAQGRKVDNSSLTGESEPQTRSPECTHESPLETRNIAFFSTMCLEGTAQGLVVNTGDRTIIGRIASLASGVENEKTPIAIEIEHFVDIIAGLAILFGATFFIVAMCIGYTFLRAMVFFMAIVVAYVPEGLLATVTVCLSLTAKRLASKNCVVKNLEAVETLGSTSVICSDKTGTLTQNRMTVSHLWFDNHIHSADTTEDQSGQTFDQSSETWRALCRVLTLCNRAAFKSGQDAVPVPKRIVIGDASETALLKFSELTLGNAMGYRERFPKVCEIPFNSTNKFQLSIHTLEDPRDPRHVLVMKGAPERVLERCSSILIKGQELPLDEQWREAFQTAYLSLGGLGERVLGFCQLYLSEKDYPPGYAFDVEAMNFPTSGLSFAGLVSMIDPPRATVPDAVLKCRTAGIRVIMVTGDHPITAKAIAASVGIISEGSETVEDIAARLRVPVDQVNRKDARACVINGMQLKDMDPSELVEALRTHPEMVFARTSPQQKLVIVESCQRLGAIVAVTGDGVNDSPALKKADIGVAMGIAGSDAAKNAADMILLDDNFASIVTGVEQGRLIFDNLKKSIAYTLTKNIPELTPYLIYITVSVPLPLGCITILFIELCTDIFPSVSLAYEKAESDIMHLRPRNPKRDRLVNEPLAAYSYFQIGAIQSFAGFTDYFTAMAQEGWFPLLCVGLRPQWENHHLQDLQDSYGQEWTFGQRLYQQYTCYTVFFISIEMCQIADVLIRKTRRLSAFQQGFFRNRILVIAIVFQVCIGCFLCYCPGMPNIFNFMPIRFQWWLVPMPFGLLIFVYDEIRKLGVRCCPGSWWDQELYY
T1 sequence (P18434 whole entry partner): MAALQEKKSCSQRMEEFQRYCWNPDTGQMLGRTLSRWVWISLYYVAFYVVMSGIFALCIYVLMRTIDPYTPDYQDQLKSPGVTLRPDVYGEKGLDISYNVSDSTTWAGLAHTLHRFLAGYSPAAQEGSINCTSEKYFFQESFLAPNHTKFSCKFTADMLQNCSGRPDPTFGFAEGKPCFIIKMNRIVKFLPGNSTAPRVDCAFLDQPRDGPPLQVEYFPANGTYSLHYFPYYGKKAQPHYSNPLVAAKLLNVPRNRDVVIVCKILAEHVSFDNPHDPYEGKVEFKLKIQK

Row | Compound | IC50
1 | CNCc1cn(S(=O)(=O)c2cccc(OC)c2)c2cc(Nc3ccc(Cl)cc3F)ccc12 [Example 164, N-(4-chloro-2-fluorophenyl)-1-((3-methoxyphenyl)sulfonyl)-3-((methylamino)methyl)-1H-indol-6-amine hydrochloride] | 7.06 µM
2 | COC(=O)c1cn(S(=O)(=O)c2cccnc2)c2cc(-c3ccc(F)nc3)ccc12 [Example 336, methyl 6-(6-fluoropyridin-3-yl)-1-(pyridin-3-ylsulfonyl)-1H-indol-3-carboxylate] | 2.7 µM
3 | CNCc1cn(S(=O)(=O)c2cccnc2)c2cc(Nc3ccc(OC(F)(F)F)cc3F)ccc12 [Example 54, N-(2-fluoro-4-(trifluoromethoxy)phenyl)-3-((methylamino)methyl)-1-(pyridin-3-ylsulfonyl)-1H-indol-6-amine hydrochloride] | 1.05 µM
4 | CNCc1cn(S(=O)(=O)c2cccc(OC(F)F)c2)c2cc(-c3cnc(F)c(C)c3)ccc12 [Example 263, 1-(1-((3-(difluoromethoxy)phenyl)sulfonyl)-6-(6-fluoro-5-methylpyridin-3-yl)-1H-indol-3-yl)-N-methylmethanamine hydrochloride] | 60 µM
5 | CNCc1cn(S(=O)(=O)c2cccnc2)c2cc(-c3ccnc(F)c3)ccc12 [Example 256, 1-(6-(2-fluoropyridin-4-yl)-1-(pyridin-3-ylsulfonyl)-1H-indol-3-yl)-N-methylmethanamine hydrochloride] | 20 µM
6 | CNCc1cn(S(=O)(=O)c2cccnc2)c2cc(Nc3ccc(F)cc3)ccc12 [Example 9, N-(4-fluorophenyl)-3-((methylamino)methyl)-1-(pyridin-3-ylsulfonyl)-1H-indol-6-amine hydrochloride] | 1.05 µM
7 | CNCc1cn(S(=O)(=O)c2cccnc2)c2cc(Nc3ccc(Oc4ccc(F)cc4)cc3)ccc12 [Example 18, N-(4-(4-fluorophenoxy)phenyl)-3-((methylamino)methyl)-1-(pyridin-3-ylsulfonyl)-1H-indol-6-amine hydrochloride] | 1.3 µM
8 | CNCc1cn(S(=O)(=O)c2cccnc2)c2cc(Nc3ccnc(Cl)c3Cl)ccc12 [Example 132, N-(2,3-dichloropyridin-4-yl)-3-((methylamino)methyl)-1-(pyridin-3-ylsulfonyl)-1H-indol-6-amine hydrochloride] | 0.73 µM
9 | CNCc1cn(S(=O)(=O)c2ccc(OC)cc2)c2cc(Cc3ccc(C)cc3Cl)ccc12 [Example 307, 1-(6-(2-chloro-4-methylbenzyl)-1-((4-methoxyphenyl)sulfonyl)-1H-indol-3-yl)-N-methylmethanamine] | 1.21 µM
10 | CNCc1cn(S(=O)(=O)c2ccc(Cl)c(Cl)c2Cl)c2cc(Nc3ccc(C)cc3F)ccc12 [Example 240, N-(2-fluoro-4-methylphenyl)-3-((methylamino)methyl)-1-((2,3,4-trichlorophenyl)sulfonyl)-1H-indol-6-amine hydrochloride] | 1.67 µM
11 | CNCc1cn(S(=O)(=O)c2cccc3ccccc23)c2cc(Nc3ccc(C)cc3F)ccc12 [Example 233, N-(2-fluoro-4-methylphenyl)-3-((methylamino)methyl)-1-(naphthalen-1-ylsulfonyl)-1H-indol-6-amine hydrochloride] | 2.85 µM
12 | CNCc1cn(S(=O)(=O)c2cccnc2)c2cc(Nc3cncc(Br)c3)ccc12 [Example 110, N-(5-bromopyridin-3-yl)-3-((methylamino)methyl)-1-(pyridin-3-ylsulfonyl)-1H-indol-6-amine hydrochloride] | 5.04 µM
13 | CNCc1cn(S(=O)(=O)c2ccc(Cl)cc2Cl)c2cc(Nc3ccc(C)cc3F)ccc12 [Example 235, 1-((2,4-dichlorophenyl)sulfonyl)-N-(2-fluoro-4-methylphenyl)-3-((methylamino)methyl)-1H-indol-6-amine hydrochloride] | 2.89 µM

Now from value to compound:

Row | IC50 | Compound
14 | 1.36 µM | CNCc1cn(S(=O)(=O)c2cccnc2)c2cc(Nc3ccc(C(F)(F)F)cc3F)ccc12 [Example 33, N-(2-fluoro-4-(trifluoromethyl)phenyl)-3-((methylamino)methyl)-1-(pyridin-3-ylsulfonyl)-1H-indol-6-amine hydrochloride]
15 | 4.17 µM | CNCc1cn(S(=O)(=O)c2cccnc2)c2cc(Oc3ccc(C(F)(F)F)cc3Cl)ccc12 [Example 311, 1-(6-(2-chloro-4-(trifluoromethyl)phenoxy)-1-(pyridin-3-ylsulfonyl)-1H-indol-3-yl)-N-methylmethanamine hydrochloride]
16 | 0.76 µM | CNCc1cn(S(=O)(=O)c2cccnc2)c2cc(Cc3ccccc3)ccc12 [Example 268, 1-(6-benzyl-(pyridin-3-ylsulfonyl)-1H-indol-3-yl)-N-methylmethanamine hydrochloride]
17 | 1.85 µM | CNCc1cn(S(=O)(=O)c2cccnc2)c2cc(Nc3ccc(-c4cccc(OC)c4)cc3)ccc12 [Example 15, N-(3′-methoxy-[1,1′-biphenyl]-4-yl)-3-((methylamino)methyl)-1-(pyridin-3-ylsulfonyl)-1H-indol-6-amine hydrochloride]
18 | 20 µM | CNCc1cn(S(=O)(=O)c2cccc(OC(F)F)c2)c2cc(-c3cncnc3)ccc12 [Example 264, 1-(1-((3-(difluoromethoxy)phenyl)sulfonyl)-6-(pyrimidin-5-yl)-1H-indol-3-yl)-N-methylmethanamine hydrochloride]
19 | 0.26 µM | CNCc1cn(S(=O)(=O)c2cccnc2)c2cc(Nc3ccc(OC)cc3C)ccc12 [Example 48, N-(4-methoxy-2-methylphenyl)-3-((methylamino)methyl)-1-(pyridin-3-ylsulfonyl)-1H-indol-6-amine hydrochloride]
20 | 0.44 µM | CNCc1cn(S(=O)(=O)c2cccc(Cl)c2)c2cc(Nc3ccc(OC(F)(F)F)cc3F)ccc12 [Example 155, 1-((3-chlorophenyl)sulfonyl)-N-(2-fluoro-4-(trifluoromethoxy)phenyl)-3-((methylamino)methyl)-1H-indol-6-amine hydrochloride]
21 | 42 µM | Cc1ccc(Nc2ccc3c(C(=O)N(C)C)cn(S(=O)(=O)c4cccnc4)c3c2)c(F)c1F [Example 329, 6-((2,3-difluoro-4-methylphenyl)amino)-N,N-dimethyl-1-(pyridin-3-ylsulfonyl)-1H-indol-3-carboxamide]
22 | 0.4 µM | CNCc1cn(S(=O)(=O)c2cccc(C(F)(F)F)c2)c2cc(Nc3ccc(OC)cc3F)ccc12 [Example 188, N-(2-fluoro-4-methoxyphenyl)-3-((methylamino)methyl)-1-((3-(trifluoromethyl)phenyl)sulfonyl)-1H-indol-6-amine hydrochloride]
23 | 2.52 µM | CNCc1cn(S(=O)(=O)c2cccnc2)c2cc(Nc3ncccc3Br)ccc12 [Example 102, N-(3-bromopyridin-2-yl)-3-((methylamino)methyl)-1-(pyridin-3-ylsulfonyl)-1H-indol-6-amine hydrochloride]
24 | 0.51 µM | CNCc1cn(S(=O)(=O)c2cccc(Cl)c2)c2cc(Nc3ccc(Cl)cc3C(F)(F)F)ccc12 [Example 151, N-(4-chloro-2-(trifluoromethyl)phenyl)-1-((3-chlorophenyl)sulfonyl)-3-((methylamino)methyl)-1H-indol-6-amine hydrochloride]
25 | 0.3 µM | CNCc1cn(S(=O)(=O)c2cccnc2)c2cc(Nc3ccc(OC)c(F)c3F)ccc12 [Example 70, N-(2,3-difluoro-4-methoxyphenyl)-3-((methylamino)methyl)-1-(pyridin-3-ylsulfonyl)-1H-indol-6-amine hydrochloride]
26 | 2.35 µM | CCOc1c(F)ccc(Nc2ccc3c(CNC)cn(S(=O)(=O)c4cccnc4)c3c2)c1F [Example 69, N-(3-ethoxy-2,4-difluorophenyl)-3-((methylamino)methyl)-1-(pyridin-3-ylsulfonyl)-1H-indol-6-amine hydrochloride]
27 | 0.48 µM | CNCc1cn(S(=O)(=O)c2cccc(Cl)c2)c2cc(Nc3ccc(OC(F)(F)F)cc3C)ccc12 [Example 154, 1-((3-chlorophenyl)sulfonyl)-N-(2-methyl-4-(trifluoromethoxy)phenyl)-3-((methylamino)methyl)-1H-indol-6-amine hydrochloride]
28 | 0.27 µM | CNCc1cn(S(=O)(=O)c2ccc(OC)cc2)c2cc(Nc3ccc(C)cc3Cl)ccc12 [Example 219, N-(2-chloro-4-methylphenyl)-1-((4-methoxyphenyl)sulfonyl)-3-((methylamino)methyl)-1H-indol-6-amine hydrochloride]
29 | 2.35 µM | CNCc1cn(S(=O)(=O)c2cccnc2)c2cc(Nc3ccc(Br)cc3OC(F)(F)F)ccc12 [Example 46, N-(4-bromo-2-(trifluoromethoxy)phenyl)-3-((methylamino)methyl)-1-(pyridin-3-ylsulfonyl)-1H-indol-6-amine hydrochloride]
30 | 0.76 µM | CNCc1cn(S(=O)(=O)c2cccnc2)c2cc(Cc3ccc(OC)cc3F)ccc12 [Example 277, 1-(6-(2-fluoro-4-methoxybenzyl)-1-(pyridin-3-ylsulfonyl)-1H-indol-3-yl)-N-methylmethanamine hydrochloride]
